Source: article PMC2965864 (British Journal of Cancer, 2010)
Where two headings read alike, the source gives them in different places.

What was measured:
[1] = Plasma pharmacokinetics of irinotecan and SN-38 in patients; details: for Tlast: median; for Tmax: median (range), n=18–20 paired
Description: (§1) In cycle 1, sunitinib administration started on day 2. Both agents were evaluated in combination on cycle 2 day 1; samples were drawn before drug administration and at 1, 1.5, 2, 4, 6, 8, 10, and 24 hours post-dose.
(§2) Pharmacokinetic parameter values were calculated for each subject by noncompartmental analysis of concentration–time data using WinNonlin version 4.1 (http://pharmacy.ucsf.edu/irc/pdfs/wul_users_guide.pdf). […] Summary descriptives of pharmacokinetic values were presented only for paired observations with respect to each analyte. In the case where the dose for one of the paired observations was different from the other observation, dose correction to the intended dose was performed (correction factor: intended dose/actual dose). Dose correction to the MTD was performed. Individual patient trough plasma concentrations were summarised per cycle and study day. All concentrations that were below the limits of quantitation (BLQ) were set to zero before computation of descriptive statistics (BLQ values were excluded from the calculations of geometric means and the associated 95% confidence intervals).
(§3) Standard plasma pharmacokinetic parameters were used including the maximum plasma concentration (Cmax), time to Cmax (Tmax), area under the plasma concentration–time curve to the time of the last measurable concentration (AUC0–last) or infinity (AUC0–∞), clearance, and terminal elimination half-life (t1/2).

[2] = for Patients requiring dose delay / Patients with dose reduction: irinotecan; for Patients requiring dose delay: cycles 1 and 2; for Patients with dose reduction: first two cycles
Description: Seven days before the start of cycle 1, a single day's dose of sunitinib was administered to allow for the collection of samples for pharmacokinetic analysis.
In addition, prophylactic use of hematopoietic growth factors to support neutrophil or platelet counts was not recommended in cycle 1, but could be used in subsequent cycles.
Patients underwent regular physical examinations (usually on day 1 of each treatment cycle), laboratory tests (blood, usually on days 1 and 15 of each cycle, and urinalysis) and 12-lead electrocardiogram (at screening, at steady state level of sunitinib on cycle 2 day 1, and as clinically indicated in subsequent cycles). […] Response Evaluation Criteria for Solid Tumors version 1.0 ([Therasse et al 2000]) was used, requiring repeat imaging studies ⩾4 weeks after the initial documentation of response.

[3] = Plasma pharmacokinetics of sunitinib, SU012662 and total drug in patients; details: human, in vivo
Description: Pharmacokinetic analysis was carried out in a central laboratory, and pharmacokinetic parameter values were estimated using noncompartmental methods. Human potassium EDTA plasma pharmacokinetic samples were analysed for sunitinib and SU012662 and total drug (sunitinib plus SU012662) concentrations at BASi (West Lafayette, IN, USA) with the use of a validated, sensitive, and specific liquid chromatographic-tandem mass spectrometric method.
as §1, §2, §3

[4] = C2D1/C1D1 (sunitinib+irinotecan relative to irinotecan alone), both cohorts combined

Structure (SMILES): CCc1c2c(nc3ccc(OC(=O)N4CCC(N5CCCCC5)CC4)cc13)-c1cc3c(c(=O)n1C2)COC(=O)[C@]3(O)CC [Irinotecan, irinotecan]
- Tlast ([1]; Irinotecan alone C1D1): 24.0 h
- Tlast ([1]; Sunitinib+irinotecan C2D1): 24.0 h
- AUC0–last ([1]; human, in vivo): 16.9 (33.3) μg h ml^−1
- AUC0–∞ ([1]; human, in vivo): 18.1 (34.0) μg h ml^−1
- Cmax ([1]; human, in vivo, 250 mg): 2900 ng/mL
- AUC(0-t) ([1]; human, in vivo, AUC0–last): 14900 ng·h/mL
- AUC(0-inf) ([1]; human, in vivo, AUC0–∞): 15900 ng·h/mL
- Maximum tolerated dose (MTD) ([2]; irinotecan day 1 of 21-day cycle, with sunitinib 25 mg per day days 1–14): 250 mg m^−2
- Patients requiring dose delay ([2]; cohort 1): four
- Patients with dose reduction ([2]; cohort 1): six
- Patients requiring dose delay ([2]; cohort 2): one
- Patients with dose reduction ([2]; cohort 2): one

Structure (SMILES): CCc1c2c(nc3ccc(O)cc13)-c1cc3c(c(=O)n1C2)COC(=O)[C@]3(O)CC [SN-38]
- Geometric mean ratio of AUC0–last [1, 4]: 1.20
- Geometric mean ratio of Cmax [1, 4]: 1.13
- AUC0–last ([1]; Irinotecan alone C1D1, mean (CV%)): 0.31 (61.7) μg h ml^−1
- Cmax ([1]; Irinotecan alone C1D1, mean (CV%), dose corrected to 250 mg m^−2): 0.03 (51.4) μg ml^−1
- Tlast ([1]; Irinotecan alone C1D1): 24.0 h
- Tmax ([1]; Irinotecan alone C1D1): 1.1 (1.0–4.2) h
- AUC0–last ([1]; Sunitinib+irinotecan C2D1, mean (CV%)): 0.36 (52.8) μg h ml^−1
- Cmax ([1]; Sunitinib+irinotecan C2D1, mean (CV%), dose corrected to 250 mg m^−2): 0.04 (50.0) μg ml^−1
- Tlast ([1]; Sunitinib+irinotecan C2D1): 24.0 h
- Tmax ([1]; Sunitinib+irinotecan C2D1): 1.5 (0.9–4.1) h

Structure (SMILES): CCNCCNC(=O)c1c(C)[nH]c(/C=C2\C(=O)Nc3ccc(F)cc32)c1C [SU012662]
- AUC0–last [3]: 53.2 (30.9) ng h ml^−1
- Cmax [3]: 3.6 (32.5) ng ml^−1
- Tlast [3]: 24.0 h
- AUC0–last ([3]; 25 mg): 38.6 (54.4) ng h ml^−1
- Cmax ([3]; 25 mg): 2.4 (51.4) ng ml^−1

Structure (SMILES): CCN(CC)CCNC(=O)c1c(C)[nH]c(/C=C2\C(=O)Nc3ccc(F)cc32)c1C [Sunitinib, sunitinib]
- AUC(0-t) [3]: 226 ng·h/mL
- Cmax [3]: 13 ng/mL
- Tlast [3]: 24.0 h
- AUC(0-t) ([3]; 25 mg): 266 ng·h/mL
- Cmax ([3]; 25 mg): 16.3 ng/mL
- Maximum tolerated dose (MTD) ([2]; sunitinib days 1–14 of 21-day cycle, with irinotecan 250 mg m^−2 day 1): 25 mg per day
